The numbers were not newly measured in US20220310211A1, “NON-TRANSITORY COMPUTER-READABLE STORAGE MEDIUM, INFORMATION PROCESSING APPARATUS, AND INFORMATION PROCESSING METHOD” (FUJITSU LIMITED, priority 2021, published 2022), which cites them from elsewhere.

The conditions of the data set: PubChem AID 1006; binary Active/Inactive.

Take `Cc1cccc(Cc2cnc(O[Si](C)(C)C)[nH]2)c1C` [CID603597]: the biological activity entry is “Active”.
